Test results published in US7858620B2, “Cyanoisoquinoline” (H. Lundbeck A/S, priority 2007, dated 2010).

Biological target: T1, PDE10A enzyme (Homo sapiens, UniProt Q9Y233)
T1 construct: made in house; host or cells: E. coli BL21(DE3)
Test: PDE10A inhibition assay, SPA
Format: biochemical
Conditions: column head 2,1334003; unit inferred, nM
Method: Active PDE10A enzyme is prepared in a number of ways for use in PDE assays (Loughney, K. et al. Gene 1999, 234, 109-117; Fujishige, K. et al. Eur J Biochem. 1999, 266, 1118-1127 and Soderling, S. et al. Proc. Natl. Acad. Sci. 1999, 96, 7071-7076). PDE10A can be expressed as full-length proteins or as truncated proteins, as long as they express the catalytic domain. PDE10A can be prepared in different cell types, for example insect cells or E. coli. An example of a method to obtain catalytically active PDE10A is as follows: The catalytic domain of human PDE10A (amino acids 440-779 from the sequence with accession number NP 006652) is amplified from total human brain total RNA by standard RT-PCR and is cloned into the BamH1 and Xho1 sites of the pET28a vector (Novagen). Expression in coli is performed according to standard protocols. Briefly, the expression plasmids are transformed into the BL21(DE3) E. coli strain, and 50 mL cultures inoculated with the cells allowed to grow to an OD600 of 0.4-0.6 before protein expression is induced with 0.5 mM IPTG. Following induction, the cells are incubated overnight at room temperature, after which the cells are collected by centrifugation. Cells expressing PDE10A are resuspended in 12 mL (50 mM TRIS-HCl-pH8.0, 1 mM MgCl2 and protease inhibitors). The cells are lysed by sonication, and after all cells are lysed, TritonX100 is added according to Novagen protocols.
PDE10A and Pde3A assays can for example be performed as follows: PDE10A and Pde3A assays are performed in 60 uL samples containing a fixed amount of the relevant PDE enzyme (sufficient to convert 20-25% of the cyclic nucleotide substrate), a buffer (50 mM HEPES7.6; 10 mM MgCl2; 0.02% Tween20), 0.1 mg/ml BSA, 225 pCi of ^3H-labelled cyclic nucleotide substrate, tritium labeled cAMP to a final concentration of 5 nM and varying amounts of inhibitors. Reactions are initiated by addition of the cyclic nucleotide substrate, and reactions are allowed to proceed for one hr at room temperature before being terminated through mixing with 15 uL 8 mg/mL yttrium silicate SPA beads (Amersham). The beads are allowed to settle for one hr in the dark before the plates are counted in a Wallac 1450 Microbeta counter. The measured signal can be converted to activity relative to an uninhibited control (100%) and IC50 values can be calculated using the Xlfit extension to EXCEL.

T1 sequence (Q9Y233 716-1055): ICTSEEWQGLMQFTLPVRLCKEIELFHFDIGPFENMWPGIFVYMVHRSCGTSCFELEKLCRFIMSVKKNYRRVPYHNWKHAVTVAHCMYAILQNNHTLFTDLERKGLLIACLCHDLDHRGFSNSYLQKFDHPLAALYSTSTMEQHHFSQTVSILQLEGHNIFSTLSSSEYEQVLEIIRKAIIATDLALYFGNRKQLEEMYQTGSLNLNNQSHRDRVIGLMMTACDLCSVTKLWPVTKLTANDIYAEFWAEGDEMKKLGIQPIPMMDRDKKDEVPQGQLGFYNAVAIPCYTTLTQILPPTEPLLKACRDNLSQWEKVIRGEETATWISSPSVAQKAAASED

Compound | IC50 [nM]
COc1cccc(C2CN(c3nc(C)c(C#N)c4cc(OC)c(OC)cc34)CCN2)c1 (stereo not drawn) [Compound 3, 6,7-Dimethoxy-1-[3-(3-methoxy-phenyl)-piperazin-1-yl]-3-methyl-isoquinoline-4-carbonitrile] | 240
COc1cc2c(C#N)cnc(N3CCNC(c4ccc5ccccc5c4)C3)c2cc1OC (stereo not drawn) [Compound 10, 6,7-Dimethoxy-1-(3-naphthalen-2-yl-piperazin-1-yl)-isoquinoline-4-carbonitrile] | 73
COc1cc2c(C#N)cnc(N3CCNC(c4cccc5ccccc45)C3)c2cc1OC (stereo not drawn) [Compound 4, 6,7-Dimethoxy-1-(3-naphthalen-1-yl-piperazin-1-yl)-isoquinoline-4-carbonitrile] | 78
COc1cc2c(N3CCNC(c4ccc(Br)cc4)C3)nc(C)c(C#N)c2cc1OC (stereo not drawn) [Compound 37, 1-[3-(4-Bromo-phenyl)-piperazin-1-yl]-6,7-dimethoxy-3-methyl-isoquinoline-4-carbonitrile] | 2600
COc1ccc(C2CN(c3ncc(C#N)c4cc(OC)c(OC)cc34)CCN2)c(OC)c1 (stereo not drawn) [Compound 58, 1-[3-(2,4-Dimethoxy-phenyl)-piperazin-1-yl]-6,7-dimethoxy-isoquinoline-4-carbonitrile] | 850
COc1cc2c(C#N)cnc(N3CCOC(c4ccccc4Cl)C3)c2cc1OC (stereo not drawn) [Compound 21, 1-[2-(2-Chloro-phenyl)-morpholin-4-yl]-6,7-dimethoxy-isoquinoline-4-carbonitrile] | 530
CCc1ccc(C2CN(c3ncc(C#N)c4cc(OC)c(OC)cc34)CCN2)cc1 (stereo not drawn) [Compound 46, 1-[3-(4-Ethyl-phenyl)-piperazin-1-yl]-6,7-dimethoxy-isoquinoline-4-carbonitrile] | 1300
COc1cc2c(C#N)cnc(N3CCSC(c4ccccc4)C3)c2cc1OC (stereo not drawn) [Compound 29, 6,7-Dimethoxy-1-(2-phenyl-thiomorpholin-4-yl)-isoquinoline-4-carbonitrile] | 2500
COc1cc(OC)cc(C2CN(c3nc(C)c(C#N)c4cc(OC)c(OC)cc34)CCN2)c1 (stereo not drawn) [Compound 35, 1-[3-(3,5-Dimethoxy-phenyl)-piperazin-1-yl]-6,7-dimethoxy-3-methyl-isoquinoline-4-carbonitrile] | 710
COc1ccc(C2CN(c3nc(C)c(C#N)c4cc(OC)c(OC)cc34)CCO2)cc1 (stereo not drawn) [Compound 39, 6,7-Dimethoxy-1-[2-(4-methoxy-phenyl)-morpholin-4-yl]-3-methyl-isoquinoline-4-carbonitrile] | 930
COc1cc2c(N3CCNC(c4cccc5ccccc45)C3)nc(C)c(C#N)c2cc1OC (stereo not drawn) [Compound 34, 6,7-Dimethoxy-3-methyl-1-(3-naphthalen-1-yl-piperazin-1-yl)-isoquinoline-4-carbonitrile] | 880
COc1ccc(OC)c(C2CN(c3ncc(C#N)c4cc(OC)c(OC)cc34)CCN2)c1 (stereo not drawn) [Compound 12, 1-[3-(2,5-Dimethoxy-phenyl)-piperazin-1-yl]-6,7-dimethoxy-isoquinoline-4-carbonitrile] | 42
COc1cc2c(C#N)cnc(N3CCN(C)C(c4ccc(C)cc4)C3)c2cc1OC (stereo not drawn) [Compound 45, 6,7-Dimethoxy-1-(4-methyl-3-p-tolyl-piperazin-1-yl)-isoquinoline-4-carbonitrile] | 350
COc1cc2c(C#N)cnc(N3CCNC(c4ccc(N5CCOCC5)cc4)C3)c2cc1OC (stereo not drawn) [Compound 16, 6,7-Dimethoxy-1-[3-(4-morpholin-4-yl-phenyl)-piperazin-1-yl]-isoquinoline-4-carbonitrile] | 76
COc1cc2c(N3CCNC(c4ccc5c(c4)OCO5)C3)nc(C)c(C#N)c2cc1OC (stereo not drawn) [Compound 43, 1-(3-Benzo[1,3]dioxol-5-yl-piperazin-1-yl)-6,7-dimethoxy-3-methyl-isoquinoline-4-carbonitrile] | 510
COc1cc2c(N3CCNC(c4ccc(N5CCOCC5)cc4)C3)nc(C)c(C#N)c2cc1OC (stereo not drawn) [Compound 51, 6,7-Dimethoxy-3-methyl-1-[3-(4-morpholin-4-yl-phenyl)-piperazin-1-yl]-isoquinoline-4-carbonitrile] | 1500
COc1cc(OC)cc(C2CN(c3ncc(C#N)c4cc(OC)c(OC)cc34)CCN2)c1 (stereo not drawn) [Compound 11, 1-[3-(3,5-Dimethoxy-phenyl)-piperazin-1-yl]-6,7-dimethoxy-isoquinoline-4-carbonitrile] | 41

Compound | IC50 [nM]
COc1cc2c(C#N)cnc(N3CCNC(c4ccc(OCC(C)C)cc4)C3)c2cc1OC (stereo not drawn) [Compound 67, 1-[3-(4-Isobutoxy-phenyl)-piperazin-1-yl]-6,7-dimethoxy-isoquinoline-4-carbonitrile] | 1100
COc1cc2c(C#N)cnc(N3CCNC(c4ccc(Br)cc4)C3)c2cc1OC (stereo not drawn) [Compound 27, 1-[3-(4-Bromo-phenyl)-piperazin-1-yl]-6,7-dimethoxy-isoquinoline-4-carbonitrile] | 510
COc1cc2c(C#N)cnc(N3CCNC(c4ccc(C(F)(F)F)cc4)C3)c2cc1OC (stereo not drawn) [Compound 13, 6,7-Dimethoxy-1-[3-(4-trifluoromethyl-phenyl)-piperazin-1-yl]-isoquinoline-4-carbonitrile] | 160
COc1cc2c(N3CCNC(c4ccc(F)cc4)C3)nc(C)c(C#N)c2cc1OC (stereo not drawn) [Compound 41, 1-[3-(4-Fluoro-phenyl)-piperazin-1-yl]-6,7-dimethoxy-3-methyl-isoquinoline-4-carbonitrile] | 1200
COc1cc2c(C#N)cnc(N3CCNC(c4ccc(C)cc4)C3)c2cc1OC (stereo not drawn) [Compound 25, 6,7-Dimethoxy-1-(3-p-tolyl-piperazin-1-yl)-isoquinoline-4-carbonitrile] | 300
COc1ccc([C@H]2CN(c3ncc(C#N)c4cc(OC)c(OC)cc34)CCN2)cc1 [Compound 62, 6,7-Dimethoxy-1-[(S)-3-(4-methoxy-phenyl)-piperazin-1-yl]-isoquinoline-4-carbonitrile] | 47
COc1cc2c(C#N)cnc(N3CCNC(c4ccc5c(c4)OCO5)C3)c2cc1OC (stereo not drawn) [Compound 8, 1-(3-Benzo[1,3]dioxol-5-yl-piperazin-1-yl)-6,7-dimethoxy-isoquinoline-4-carbonitrile] | 81
COc1cc2c(C#N)cnc(N3CCN[C@@H](c4ccccc4)C3)c2cc1OC [Compound 44, 6,7-Dimethoxy-1-((S)-3-phenyl-piperazin-1-yl)-isoquinoline-4-carbonitrile] | 410
COc1cc2c(C#N)cnc(N3CCNC(c4ccc(OC(C)C)c(C)c4)C3)c2cc1OC (stereo not drawn) [Compound 63, 1-[3-(4-Isopropoxy-3-methyl-phenyl)-piperazin-1-yl]-6,7-dimethoxy-isoquinoline-4-carbonitrile] | 870
COc1cc2c(C#N)cnc(N3CCNC(c4ccc(F)cc4)C3)c2cc1OC (stereo not drawn) [Compound 1, 1-[3-(4-Fluoro-phenyl)-piperazin-1-yl]-6,7-dimethoxy-isoquinoline-4-carbonitrile] | 80
COc1cc2c(C#N)cnc(N3CCNC(c4ccc(Cl)cc4Cl)C3)c2cc1OC (stereo not drawn) [Compound 15, 1-[3-(2,4-Dichloro-phenyl)-piperazin-1-yl]-6,7-dimethoxy-isoquinoline-4-carbonitrile] | 520
COc1cc2c(N3CCNC(c4cccc([N+](=O)[O-])c4)C3)nc(C)c(C#N)c2cc1OC (stereo not drawn) [Compound 50, 6,7-Dimethoxy-3-methyl-1-[3-(3-nitro-phenyl)-piperazin-1-yl]-isoquinoline-4-carbonitrile] | 1100
COc1cc2c(N3CCNC(c4ccc5ccccc5c4)C3)nc(C)c(C#N)c2cc1OC (stereo not drawn) [Compound 33, 6,7-Dimethoxy-3-methyl-1-(3-naphthalen-2-yl-piperazin-1-yl)-isoquinoline-4-carbonitrile] | 2100
COc1cc2c(C#N)cnc(N3CCNC(c4ccccc4OC)C3)c2cc1OC (stereo not drawn) [Compound 6, 6,7-Dimethoxy-1-[3-(2-methoxy-phenyl)-piperazin-1-yl]-isoquinoline-4-carbonitrile] | 420
COc1ccc(C2CN(c3nc(C)c(C#N)c4cc(OC)c(OC)cc34)CCN2)cc1 (stereo not drawn) [Compound 32, 6,7-Dimethoxy-1-[3-(4-methoxy-phenyl)-piperazin-1-yl]-3-methyl-isoquinoline-4-carbonitrile] | 290
COc1cc2c(C#N)cnc(N3CCNC(c4cc(Cl)ccc4Cl)C3)c2cc1OC (stereo not drawn) [Compound 14, 1-[3-(2,5-Dichloro-phenyl)-piperazin-1-yl]-6,7-dimethoxy-isoquinoline-4-carbonitrile] | 650
